The values that follow come from patent US20100029710A1, “COMPOUNDS HAVING BOTH ANGIOTENSIN II RECEPTOR ANTAGONISM AND PPARy ACTIVATING ACTIVITIES” (Pfizer Products Inc., priority 2006, published 2010).

Assay [1] concerns the target T1, Human recombinant AT1 receptor (Homo sapiens, UniProt P30556).
T1 construct: purchased
T1 sequence (P30556 1-359): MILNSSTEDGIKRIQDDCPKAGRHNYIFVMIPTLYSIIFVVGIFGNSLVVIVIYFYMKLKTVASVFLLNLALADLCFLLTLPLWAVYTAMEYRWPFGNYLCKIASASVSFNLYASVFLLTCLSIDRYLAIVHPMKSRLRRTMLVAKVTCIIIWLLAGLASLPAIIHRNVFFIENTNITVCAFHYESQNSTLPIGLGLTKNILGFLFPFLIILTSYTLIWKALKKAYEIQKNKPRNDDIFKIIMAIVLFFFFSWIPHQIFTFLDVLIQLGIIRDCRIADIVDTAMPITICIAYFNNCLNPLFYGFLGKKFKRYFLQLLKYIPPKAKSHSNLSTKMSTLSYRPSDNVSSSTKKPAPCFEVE
The experiment in a line: AT1 receptor radioligand binding (flashplate). The conditions noted are these: 125I Sar1,Ile8-Angiotensin II radioligand. The procedure: Angiotensin II receptor antagonist activity may be determined using commercially available flashplates coated with the AT1 or AT2 receptor which provide a rapid and high throughput means to evaluate compounds compared to traditional filtration based assays (Regina M. Van Der Hee et al., Journal of Biomolecular Screening 10(2); 2005; 118-126).
AT1 receptor affinity was determined in a radioligand binding format using commercially available flashplate technology. Human recombinant AT1 receptor were coated on the wells of a 96 well flashplate and test compounds were diluted and added to wells at a final concentration range of 50 μM to 1 μM. Total binding was determined in the absence of compound and non-specific binding in the presence of 10 μM cold Angiotensin II. ^125I labeled Sar^1, Ile^8-Angiotensin II was added to all wells at Kd concentration and left for 2 hours at room temperature to equilibrate. Plates were read on a TopCount (Perkin Elmer) and concentration-response curves constructed using commercial curve fitting software. The Ki was determined via interpolation and the use of the Cheng-Prussof equation.

Assay [2] concerns the target T2, human PPARγ LBD bound to Gal4 DBD (Homo sapiens, UniProt P37231).
T2 construct: expressed in transfected cells; host or cells: HepG2
T2 sequence (P37231 238-503 limits assumed): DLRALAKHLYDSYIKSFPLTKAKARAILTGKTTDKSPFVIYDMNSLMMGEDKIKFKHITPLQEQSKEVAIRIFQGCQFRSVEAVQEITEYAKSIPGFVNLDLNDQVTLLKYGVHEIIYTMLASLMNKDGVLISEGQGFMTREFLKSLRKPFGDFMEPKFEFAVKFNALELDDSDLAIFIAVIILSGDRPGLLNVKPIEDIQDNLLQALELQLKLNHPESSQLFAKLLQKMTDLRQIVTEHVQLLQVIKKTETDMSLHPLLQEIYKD
The experiment in a line: PPARγ transfection luciferase reporter assay in HepG2 cells. The format is cell-based. The conditions noted are these: for Emax: HepG2, 24 h, compared to full agonist response (standard TZD full agonist), read-out: PPARγ % activation; for EC50: HepG2, 24 hours exposure. The procedure: PPARγ agonist activity may be determined by a cell line transiently transfected with PPARγ bound to a DNA binding domain that controls luciferase expression. The degree of receptor agonism is measured by the amount of luciferase activity after compound treatment. The ratio of treated cells over vehicle control cells provides a measure of fold activation and allows an EC50 (shown in tables I and II as […] EC50) and % activation to be calculated
A human hepatocellular carcinoma cell line (HepG2) was subcultured into dishes and transiently transfected with DNA to allow expression of human PPARγ LBD bound to Gal4 DBD. Luciferase reporter gene and β-galactosidase control genes were co-transfected to enable activity to be measured. After 24 hours, cells were exposed to compounds in the concentration range of 0.1 nM-100 μM and left for a further 24 hours. Luciferase activity is determined by luminometry and PPARγ activation is expressed as a ratio of luciferase activity to β-galactosidase activity to account for transfection efficiency. Potency is described by an EC50 defined as the concentration of compound producing receptor activation equivalent to 50% of the maximum for that compound (shown in Table I as transfection EC50). The maximum fold activation is a measure of efficacy and is expressed as a percentage of a reference full agonist run in the same assay. Efficacy is described by % activation of receptor relative to a standard thiazolidinedione (TZD) full agonist.

As for `CCc1nc2c(C)cc(CCc3ccccc3F)nc2n1[C@H]1CCc2cc(-c3ccccc3-c3nnn[nH]3)ccc21` [Example 26, 3-((1S)-5-(2-(1H-tetrazol-5-yl)phenyl)-2,3-dihydro-1H-inden-1-yl)-5-(2-fluorophenethyl)-2-ethyl-7-methyl-3H-imidazo[4,5-b]pyridine], the IC50 in assay [1] is 10 nM. In assay [2], the Emax was determined as 26% and it took 380 nM to reach a half-maximal effect (EC50).

For `CCc1nc2c(C)cc(CCC(O)c3cccnc3)nc2n1[C@H]1CCc2cc(-c3ccccc3-c3nnn[nH]3)ccc21` (stereo partly drawn) [Example 34, 3-(3-((1S)-5-(2-(1H-tetrazol-5-yl)phenyl)-2,3-dihydro-1H-inden-1-yl)-2-ethyl-7-methyl-3H-imidazo[4,5-b]pyridin-5-yl)-1-(pyridin-3-yl)propan-1-ol], the IC50 in assay [1] came out at 2.1 nM. For the same compound, in assay [2], the Emax turned out to be 12% and it took 595 nM to reach a half-maximal effect (EC50).

`CCc1nc2c(C)cc(CCC(C)(C)O)nc2n1[C@H]1CCc2cc(-c3ccccc3-c3nnn[nH]3)ccc21` [Example 53, 4-(3-((1S)-5-(2-(1H-tetrazol-5-yl)phenyl)-2,3-dihydro-1H-inden-1-yl)-2-ethyl-7-methyl-3H-imidazo[4,5-b]pyridin-5-yl)-2-methylbutan-2-ol]: in assay [1], the half-maximal inhibitory concentration (IC50) came out at 1.4 nM. In assay [2], the Emax amounted to 30% and the EC50 came out at 215 nM.

Consider `CCc1nc2c(C)cc([C@H](O)C(C)C)nc2n1[C@H]1CCc2cc(-c3ccccc3-c3nnn[nH]3)ccc21` [Example 11, (R)-1-(3-((1S)-5-(2-(1H-tetrazol-5-yl)phenyl)-2,3-dihydro-1H-inden-1-yl)-2-ethyl-7-methyl-3H-imidazo[4,5-b]pyridin-5-yl)-2-methylpropan-1-ol], for which the IC50 in assay [1] came out at 16 nM. Also, in assay [2], the Emax is 39% and the EC50 was determined as 440 nM.

Turning to `CCc1nc2c(C)cc(CCCOC)nc2n1[C@H]1CCc2cc(-c3ccccc3-c3nnn[nH]3)ccc21` [Example 48, 3-((1S)-5-(2-(1H-tetrazol-5-yl)phenyl)-2,3-dihydro-1H-inden-1-yl)-2-ethyl-5-(3-methoxypropyl)-7-methyl-3H-imidazo[4,5-b]pyridine], in assay [1], the IC50 turned out to be 1.1 nM. Further, in assay [2], the Emax was found to be 21% and the EC50 worked out at 190 nM.

Take `CCc1nc2c(C)cc(CC[C@@H](O)CC)nc2n1[C@H]1CCc2cc(-c3ccccc3-c3nnn[nH]3)ccc21` [Example 46, (S)-1-(3-((1S)-5-(2-(1H-tetrazol-5-yl)phenyl)-2,3-dihydro-1H-inden-1-yl)-2-ethyl-7-methyl-3H-imidazo[4,5-b]pyridin-5-yl)pentan-3-ol]: the IC50 in assay [1] came to 1.2 nM. Besides, in assay [2], the Emax was 26% and the EC50 was 170 nM.

`CCCc1nc2c(C)cc(CCC3(O)CCCC3)nc2n1[C@H]1CCc2cc(-c3ccccc3-c3nnn[nH]3)ccc21` [Example 43, 1-(2-(3-((1S)-5-(2-(1H-tetrazol-5-yl)phenyl)-2,3-dihydro-1H-inden-1-yl)-7-methyl-2-propyl-3H-imidazo[4,5-b]pyridin-5-yl)ethyl)cyclopentanol]: the IC50 in assay [1] was 1 nM. In assay [2], the Emax was 20% and the midpoint of the response, the EC50, lay at 840 nM.

Take `CCc1nc2c(C)cc(CCc3ccccc3C)nc2n1[C@H]1CCc2cc(-c3ccccc3-c3nnn[nH]3)ccc21` [Example 28, ((1S)-5-(2-(1H-tetrazol-5-yl)phenyl)-2,3-dihydro-1H-inden-1-yl)-5-(2-methylphenethyl)-2-ethyl-7-methyl-3H-imidazo[4,5-b]pyridine]: in assay [1], the IC50 came to 2.2 nM. In assay [2], the Emax came to 15% and the EC50 is 330 nM.

As to `CCc1nc2c(C)cc(CCc3cc(C)ccc3C)nc2n1[C@H]1CCc2cc(-c3ccccc3-c3nnn[nH]3)ccc21` [Example 31, 3-((1S)-5-(2-(1H-tetrazol-5-yl)phenyl)-2,3-dihydro-1H-inden-1-yl)-5-(2,5-dimethylphenethyl)-2-ethyl-7-methyl-3H-imidazo[4,5-b]pyridine], the IC50 in assay [1] was determined as 6.9 nM. In assay [2], the Emax was 63% and it took 45 nM to reach a half-maximal effect (EC50).
